Earlier results on 1 compound are cited in US20180318338A1, “METHODS AND COMPOSITIONS FOR THE PREVENTION OF SUICIDE, HOMICIDE AND SELF-HARMING BEHAVIORS” (THE MCLEAN HOSPITAL CORPORATION, priority 2015, published 2018).

For the data set the following is noted: in vivo.

Turning to `[Xe]` [xenon], the “blood level of xenon” value is on record as 100 to 200 nL xenon/mL blood.
